Converted amounts (≈) assume the structure as drawn.

What all share (assay type): cell-based
Assay [1] deals with Pseudomonas aeruginosa MB5919 Trans pFlp-Vim2 plasmid (efflux+). The conditions noted are these: MB 5919 Trans pFlp-Vim2 plasmid, OprD+.
The subject of assay [2] is Pseudomonas aeruginosa MB9798 (MB5919 Trans IMP1 plasmid, efflux+). The conditions noted are these: MB5919 Trans IMP1 plasmid (MB 9798), OprD+. From the text:
(§1) The strain background is Pseudomonas aeruginosa PAO1. A wild-type (MB5919) and an isogenic strain in which multiple efflux pumps have been disrupted genetically were used. The MBL IMP-1, obtained from a clinical isolate was introduced into the strain pair by the following process:
(§2) Plasmid DNA (encoding IMP-1) was extracted from CL 5673 (IMP-1, P. aeruginosa clinical strain) by standard techniques. The plasmid DNA was transformed into parental MB5919 (oprD+, efflux+, inducible AmpC) and MB5890 (oprD+, efflux−, inducible AmpC) isogenic strains by electroporation. These transformed strains were plated onto cation-adjusted Muller-Hinton agar plates containing ceftazidime at 32 μg/mL (MB5919) and 16 μg/mL (MB5890) to select for those cells in which the IMP-1-expressing plasmid was introduced successfully, resulting in resistance to ceftazidime.
(§3) Minimum inhibitory concentrations of sentinel antibiotics were performed to quality control the new strains.

Assay [3] has as its system Pseudomonas aeruginosa MB9799 (MB5890 Trans IMP1 plasmid, efflux−). The conditions noted are these: MB 5890 Trans IMP1 plasmid (MB 9799), OprD+.
Excerpt: as §1, §2, §3

The subject of assay [4] is Pseudomonas aeruginosa PAO1 MB5919 (oprD+, efflux+).
Excerpt: as §1, §2, §3

Assay [5] deals with Pseudomonas aeruginosa MB5890 (oprD+, efflux−). The conditions noted are these: MB 5890, OprD+.
Excerpt: as §1, §2, §3

In assay [6] the test system is Pseudomonas aeruginosa MB5890 Trans pFlp-Vim2 plasmid (efflux−). The conditions noted are these: MB 5890 Trans pFlp-Vim2 plasmid, OprD+.
For assay [7], the system named is Pseudomonas aeruginosa MB9861 (MB5919 Trans pFlp-Vim1 plasmid, efflux+). The conditions noted are these: MB5919 Trans pFlp-Vim1 plasmid (MB 9861), OprD+.
In assay [8] the test system is Pseudomonas aeruginosa MB9862 (MB5890 trans pFlp-Vim1 plasmid, efflux−). The conditions noted are these: MB 5890 trans pFlp-Vim1 plasmid (MB 9862), OprD+.

As for `O=C(N[C@H](CO)[C@H](O)c1ccc([N+](=O)[O-])cc1)C(Cl)Cl` [Chloramphenicol], the MIC (usually the lowest concentration found to suppress growth) in assay [1] is more than 64 mg/L; in assay [2], more than 64 mg/L; in assay [3], 1 mg/L (≈ 3.09 µM); in assay [4], more than 64 mg/L; in assay [5] it was 1 mg/L (≈ 3.09 µM); in assay [6] it was 1 mg/L (≈ 3.09 µM). The MIC in assay [7] is more than 64 mg/L; in assay [8], 2 mg/L (≈ 6.19 µM).

In the case of `C[C@@H](O)[C@H]1C(=O)N2C(C(=O)O)=C(SCCN=CN)C[C@H]12` [Imipenem], the MIC is more than 64 mg/L in assay [1]; 64 mg/L (≈ 214 µM) in assay [2]; 32 mg/L (≈ 107 µM) in assay [3]; 4 mg/L (≈ 13.4 µM) in assay [4]; 2 mg/L (≈ 6.68 µM) in assay [5]; 32 mg/L (≈ 107 µM) in assay [6]. In addition, the figures for the MIC in assay [7] and in assay [8] were more than 64 mg/L and 64 mg/L (≈ 214 µM), respectively.

Regarding `C[C@@H](O)[C@H]1C(=O)N2C(C(=O)O)=C(S[C@@H]3CN[C@H](C(=O)N(C)C)C3)[C@H](C)[C@H]12` [Meropenem], the MIC in assay [1] was more than 64 mg/L; in assay [2], more than 64 mg/L; in assay [3] it was 64 mg/L (≈ 167 µM); in assay [4], 2 mg/L (≈ 5.22 µM); in assay [5], 0.5 mg/L (≈ 1.3 µM); in assay [6], 32 mg/L (≈ 83.4 µM). Moreover, the MIC was more than 64 mg/L in assay [7] and 64 mg/L (≈ 167 µM) in assay [8].

For `CCN1CCN(C(=O)N[C@@H](C(=O)N[C@@H]2C(=O)N3[C@@H]2SC(C)(C)[C@@H]3C(=O)O)c2ccccc2)C(=O)C1=O` [Pipercillin], the MIC in assay [1] is more than 256 mg/L; in assay [2] it was 4 mg/L (≈ 7.73 µM); in assay [3], 4 mg/L (≈ 7.73 µM); in assay [4], 2 mg/L (≈ 3.86 µM); in assay [5], 1 mg/L (≈ 1.93 µM); in assay [6] it was 128 mg/L (≈ 247 µM). Besides, the MIC in assay [7] was more than 256 mg/L; in assay [8], 128 mg/L (≈ 247 µM).

Source of the values: patent US20200375987A1, “METALLO-BETA-LACTAMASE INHIBITORS AND METHODS OF USE THEREOF” (priority 2018, published 2020).
